Measured values: ChEMBL document CHEMBL5226369, “Tetracyclic Steroids Bearing a Bicyclo[4.4.1] Ring System as Potent Antiosteoporosis Agents from the Deep-Sea-Derived Fungus Rhizopus sp. W23” (J Nat Prod, 2023)

Columns and labels:
Type in all cases: functional, cell-based
[1] = test system: A-375; assay: Antiproliferative activity against human A-375 cells by MTT assay
[2] = test system: PANC-1; assay: Antiproliferative activity against human PANC-1 cells by MTT assay
[3] = test system: MCF7; assay: Antiproliferative activity against human MCF7 cells by MTT assay
[4] = test system: K562; assay: Antiproliferative activity against human K562 cells by MTT assay
[5] = test system: MDA-MB-231; assay: Antiproliferative activity against human MDA-MB-231 cells by MTT assay
[6] = Antiproliferative activity against human QGY-7701 cells by MTT assay; settings: QGY7701
[7] = test system: NCI-H460; assay: Antiproliferative activity against human NCI-H460 cells by MTT assay
[8] = test system: A-431; assay: Antiproliferative activity against human A-431 cells by MTT assay
[9] = Antiproliferative activity against human SKGT4 cells by MTT assay
[10] = test system: NCI-H1299; assay: Antiproliferative activity against human NCI-H1299 cells by MTT assay
[11] = test system: HCT-116; assay: Antiproliferative activity against human HCT-116 cells by MTT assay
[12] = test system: BGC-823; assay: Antiproliferative activity against human BGC-823 cells by MTT assay
[13] = test system: PC-3; assay: Antiproliferative activity against human PC-3 cells by MTT assay
[14] = test system: HepG2; assay: Antiproliferative activity against human HepG2 cells by MTT assay
[15] = test system: A549; assay: Antiproliferative activity against human A549 cells by MTT assay
[16] = test system: KYSE-450; assay: Antiproliferative activity against human KYSE-450 cells by MTT assay
[17] = test system: U2OS; assay: Antiproliferative activity against human U2OS cells by MTT assay
[18] = test system: HL-60; assay: Antiproliferative activity against human HL-60 cells by MTT assay

Measured: IC50

C/C=C/[C@@H](O)[C@](C)(O)[C@H]1CC[C@H]2C3=CC(=O)[C@H]4CC(=CC[C@H](O)C4)[C@H]3CC[C@]12C
> 20 µM: all assays above

C/C(=C\[C@H](O)[C@H](C)O)[C@H]1CC[C@H]2C3=CC(=O)[C@H]4CC(=CC[C@H](O)C4)[C@H]3CC[C@]12C [NEOCYCLOCITRINOL B]
> 20 µM: all assays above

CO[C@H](/C=C(\C)[C@H]1CC[C@H]2C3=CC(=O)[C@H]4CC(=CC[C@H](O)C4)[C@H]3CC[C@]12C)[C@H](C)O
> 20 µM: all assays above

C/C(=C\[C@@H](O)[C@@H](C)O)[C@H]1CC[C@H]2C3=CC(=O)[C@H]4CC(=CC[C@H](O)C4)[C@H]3CC[C@]12C
> 20 µM: all assays above

C/C(=C\C(=O)C(C)O)[C@H]1CC[C@H]2C3=CC(=O)[C@H]4CC(=CC[C@H](O)C4)[C@H]3CC[C@]12C (stereo partly drawn)
> 20 µM: all assays above

CC(=O)OC(/C=C(\C)[C@H]1CC[C@H]2C3=CC(=O)[C@H]4CC(=CC[C@H](O)C4)[C@H]3CC[C@]12C)C(C)O (stereo partly drawn)
> 20 µM: all assays above

CC(=O)OC(C)C(O)/C=C(\C)[C@H]1CC[C@H]2C3=CC(=O)[C@H]4CC(=CC[C@H](O)C4)[C@H]3CC[C@]12C (stereo partly drawn)
> 20 µM: all assays above

C/C(=C\[C@H](O)[C@@H](C)O)[C@H]1CC[C@H]2C3=CC(=O)[C@H]4CC(=CC[C@H](O)C4)[C@H]3CC[C@]12C
> 20 µM: all assays above

C/C=C/[C@H](OC(C)=O)[C@](C)(O)[C@H]1CC[C@H]2C3=CC(=O)[C@H]4CC(=CC[C@H](O)C4)[C@H]3CC[C@]12C
> 20 µM: all assays above

CC(=O)/C=C/[C@](C)(O)[C@H]1CC[C@H]2C3=CC(=O)[C@H]4CC(=CC[C@H](O)C4)[C@H]3CC[C@@]21C
> 20 µM: all assays above

C/C(=C\C(=O)O)[C@H]1CC[C@H]2C3=CC(=O)[C@H]4CC(=CC[C@H](O)C4)[C@H]3CC[C@]12C
> 20 µM: all assays above
